The subject of assay [1] is SDMA signal (PRMT5 inhibition) in HCT116 MTAP-deleted cells. In words: Symmetric di-methyl arginine image-based high content screen assay (SDMA assay), HCT116 MTAP-deleted. The format is cell-based. To be noted: SDMA assay; for EC50: Homo sapiens, HCT-116, 72 h, 3 days of treatment, cell line not given, taken as HCT116 MTAP-deleted, read-out: EC50 (SDMA assay). In short, it runs like this: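 HCT116 MTAP-deleted cells treated with compound until Day 3, then formalin-fixed, permeabilized and immunostained for SDMA, with DAPI nuclear counterstain. Imaged by high-content microscopy; SDMA read-out is mean Alexa 488 intensity per DAPI-defined cell, reflecting PRMT5 inhibition.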

Assay [2] relates to HCT116 MTAP-deleted cells. Nature of the assay: Cell viability assay (CellTiter-Glo, 7 days), HCT116 MTAP-deleted. The settings on record: Homo sapiens, HCT-116, 168 h. In general terms: ATP-based viability assays read luminescence as a measure of living cells.
The mark [3] stands for this setting: taken as HCT116 WT vs MTAP-deleted.
Where [4] appears, read: taken as HCT116 WT versus MTAP-deleted.

A word on the EC50: it is the concentration giving half of the maximal effect. The CC50 is the concentration giving 50% cytotoxicity. In the case of `CC(=O)NN(Cc1ccc(C(F)(F)F)cc1F)C(=O)c1ccc2nc(N)c3cnn(C)c3c2c1` [Example 445, N′-acetyl-4-amino-N-(2-fluoro-4-(trifluoromethyl)benzyl)-1-methyl-1H-pyrazolo[4,3-c]quinoline-8-carbohydrazide], in assay [1], the EC50 is below 1 nM. Moreover, the “EC50 selectivity (SDMA assay)” value in assay [1] (setting [3]) was 69. Besides, the 50% cytotoxic concentration (CC50) in assay [2] was below 100 nM.
`CN(c1ccccn1)N(Cc1ccc(C(F)(F)F)cn1)C(=O)c1ccc2nc(N)c3cnn(C)c3c2c1` [Example 25, 4-amino-N′, 1-dimethyl-N′-(2-pyridyl)-N-[[5-(trifluoromethyl)-2-pyridyl]methyl]pyrazolo[4,3-c]quinoline-8-carbohydrazide]: the concentration giving a half-maximal response (EC50) in assay [1] lay in the range of 1 to 5 nM. The “EC50 selectivity (SDMA assay)” value in assay [1] (setting [4]) is reported as 26. The compound also had a 50% cytotoxic concentration (CC50) in assay [2] below 100 nM.
The corresponding values for `CC(=O)N(C)N(Cc1ccc(-c2csc(C(F)(F)F)n2)cc1F)C(=O)c1ccc2nc(N)c3cnn(C)c3c2c1` [Example 250, N′-acetyl-4-amino-N-(2-fluoro-4-(2-(trifluoromethyl)thiazol-4-yl)benzyl)-N′,1-dimethyl-1H-pyrazolo[4,3-c]quinoline-8-carbohydrazide] are below 1 nM, 153 and below 100 nM.
The corresponding values for `CN(C(=O)N1CC2CC2C1)N(Cc1ccc(C(F)(F)F)cn1)C(=O)c1ccc2nc(N)c3cnn(C)c3c2c1` (stereo not drawn) [Example 127, 4-amino-N′-(3-azabicyclo[3.1.0]hexane-3-carbonyl)-N′,1-dimethyl-N-((5-(trifluoromethyl)pyridin-2-yl)methyl)-1H-pyrazolo[4,3-c]quinoline-8-carbohydrazide] are 1 to 5 nM, 228 and below 100 nM.
As for `CC(=O)N(C)N(Cc1nc2cccc(Cl)c2n1C)C(=O)c1ccc2nc(N)c3cnn(C)c3c2c1` [Example 438, N′-acetyl-4-amino-N-((7-chloro-1-methyl-1H-benzo[d]imidazol-2-yl)methyl)-N′,1-dimethyl-1H-pyrazolo[4,3-c]quinoline-8-carbohydrazide], the EC50 in assay [1] is below 1 nM. For the same compound, the “EC50 selectivity (SDMA assay)” value in assay [1] (setting [3]) is listed as 141. Besides, the cytotoxic concentration (CC50) in assay [2] is below 100 nM.
On to `Cc1cc(CN(C(=O)c2ccc3nc(N)c4cnn(C)c4c3c2)N(C)C(=O)C2CC2)ncc1Cl` [Example 267, 4-amino-N-((5-chloro-4-methylpyridin-2-yl)methyl)-N′-(cyclopropanecarbonyl)-N′,1-dimethyl-1H-pyrazolo[4,3-c]quinoline-8-carbohydrazide], for which, in assay [1], the EC50 was in the range of 1 to 5 nM. For the same compound, the “EC50 selectivity (SDMA assay)” value in assay [1] (setting [4]) is reported as 223. Further, the CC50 in assay [2] is below 100 nM.
For `Cn1ncc2c(N)nc3ccc(C(=O)N(Cc4ccc(C(F)(F)F)cn4)N4C(=O)O[C@@H]5CC[C@@H]54)cc3c21` [Example 260, 4-amino-1-methyl-N-((1R,5S)-3-oxo-2-oxa-4-azabicyclo[3.2.0]heptan-4-yl)-N-((5-(trifluoromethyl)pyridin-2-yl)methyl)-1H-pyrazolo[4,3-c]quinoline-8-carboxamide], in that order: 1 to 5 nM, 211 and below 100 nM.
Regarding `Cn1c(CN(C(=O)c2ccc3nc(N)c4c(c3c2)COC4)N2CCCC2=O)nc2ccccc21` [Example 81, 4-Amino-N-[(1-methylbenzimidazol-2-yl)methyl]-N-(2-oxopyrrolidin-1-yl)-1,3-dihydrofuro[3,4-c]quinoline-8-carboxamide], the EC50 in assay [1] is 1 to 5 nM. In assay [1] (setting [4]), the “EC50 selectivity (SDMA assay)” value worked out at 101. The CC50 in assay [2] is below 100 nM.
As to `CN(C(=O)N1CC(F)(F)C1)N(Cc1ccc(C(F)(F)F)cn1)C(=O)c1ccc2nc(N)c3cnn(C)c3c2c1` [Example 157, 4-amino-N′-(3,3-difluoroazetidine-1-carbonyl)-N′,1-dimethyl-N-((5-(trifluoromethyl)pyridin-2-yl)methyl)-1H-pyrazolo[4,3-c]quinoline-8-carbohydrazide], the concentration giving a half-maximal response (EC50) in assay [1] was below 1 nM. In addition, the “EC50 selectivity (SDMA assay)” value in assay [1] (setting [4]) is reported as 54. Further, in assay [2], the CC50 is below 100 nM.
The corresponding values for `CC(=O)N(C)N(Cc1ccc(-c2cn(C(F)(F)F)cn2)cc1F)C(=O)c1ccc2nc(N)c3cnn(C)c3c2c1` [Example 223, N′-acetyl-4-amino-N-(2-fluoro-4-(1-(trifluoromethyl)-1H-imidazol-4-yl)benzyl)-N′,1-dimethyl-1H-pyrazolo[4,3-c]quinoline-8-carbohydrazide] are 1 to 5 nM, 139 and below 100 nM.
For `CC(=O)N(C)N(Cc1ccc(C(F)(F)F)cc1F)C(=O)c1cc2c(cc1F)nc(N)c1cnn(C)c12` [Example 40, N′-acetyl-4-amino-7-fluoro-N-[[2-fluoro-4-(trifluoromethyl)phenyl]methyl]-N′,1-dimethyl-pyrazolo[4,3-c]quinoline-8-carbohydrazide], in that order: below 1 nM, 8 and below 100 nM.
On to `Cn1ncc2c(N)nc3ccc(C(=O)N(Cc4ccc(C(F)(F)F)cc4F)n4ccnc4)cc3c21` [Example 199, 4-amino-N-[[2-fluoro-4-(trifluoromethyl)phenyl]methyl]-N-imidazol-1-yl-1-methyl-pyrazolo[4,3-c]quinoline-8-carboxamide], for which the 50% effective concentration (EC50) in assay [1] is below 1 nM. In addition, the “EC50 selectivity (SDMA assay)” value in assay [1] (setting [4]) was determined as 26. For the same compound, the CC50 in assay [2] was below 100 nM.
Consider `CN(C(=O)C1CC1)N(Cc1ccc(F)cc1)C(=O)c1ccc2nc(N)c3cnn(C)c3c2c1` [Example 235, 4-amino-N′-(cyclopropanecarbonyl)-N-(4-fluorobenzyl)-N′,1-dimethyl-1H-pyrazolo[4,3-c]quinoline-8-carbohydrazide], for which, in assay [1], the EC50 was 1 to 5 nM. In addition, the “EC50 selectivity (SDMA assay)” value in assay [1] (setting [4]) worked out at 259. In addition, in assay [2], the CC50 is below 100 nM.
For `CC(=O)N(c1ccccc1)N(Cc1ccc(C(F)(F)F)cn1)C(=O)c1ccc2nc(N)c3cnn(C)c3c2c1` [Example 6, N′-acetyl-4-amino-1-methyl-N′-phenyl-N-((5-(trifluoromethyl)pyridin-2-yl)methyl)-1H-pyrazolo[4,3-c]quinoline-8-carbohydrazide], in that order: below 1 nM, 286 and below 100 nM.
The corresponding values for `COc1nc(C(F)(F)F)ccc1CN(C(=O)c1ccc2nc(N)c3cnn(C)c3c2c1)N(C)C(C)=O` [Example 18, N′-acetyl-4-amino-N-[[2-methoxy-6-(trifluoromethyl)-3-pyridyl]methyl]-N′, 1-dimethyl-pyrazolo[4,3-c]quinoline-8-carbohydrazide] are below 1 nM, 61 and below 100 nM.
The corresponding values for `CN(C(=O)C1CC1)N(Cc1ncc(Cl)cc1F)C(=O)c1ccc2nc(N)c3cnn(C)c3c2c1` [Example 360, 4-amino-N-((5-chloro-3-fluoropyridin-2-yl)methyl)-N′-(cyclopropanecarbonyl)-N′,1-dimethyl-1H-pyrazolo[4,3-c]quinoline-8-carbohydrazide] are 1 to 5 nM, 446 and below 100 nM.
For `Cn1ncc2c(N)nc3ccc(C(=O)N(Cc4ccc(C(F)(F)F)cn4)N4CCOCC4)cc3c21` [Example 20, 4-amino-1-methyl-N-morpholino-N-((5-(trifluoromethyl)pyridin-2-yl)methyl)-1H-pyrazolo[4,3-c]quinoline-8-carboxamide], the EC50 in assay [1] was below 1 nM. Also, the “EC50 selectivity (SDMA assay)” value in assay [1] (setting [4]) was determined as 143. For the same compound, the 50% cytotoxic concentration (CC50) in assay [2] is below 100 nM.
Turning to `Cn1ncc2c3cc(C(=O)N(Cc4ccc(C(F)(F)F)cn4)N4CCOC4=O)ccc3nc(N)c21` [Example 150, 4-amino-3-methyl-N-(2-oxooxazolidin-3-yl)-N-((5-(trifluoromethyl)pyridin-2-yl)methyl)-3H-pyrazolo[3,4-c]quinoline-8-carboxamide], in assay [1], the EC50 is 1 to 5 nM. Further, the “EC50 selectivity (SDMA assay)” value in assay [1] (setting [4]) stood at 138. The half-maximal cytotoxic concentration (CC50) in assay [2] was below 100 nM.
For `CC(=O)N(C)N(Cc1ccc2nc(C(F)(F)F)sc2c1)C(=O)c1ccc2nc(N)c3cnn(C)c3c2c1` [Example 337, N′-acetyl-4-amino-N′,1-dimethyl-N-((2-(trifluoromethyl)benzo[d]thiazol-6-yl)methyl)-1H-pyrazolo[4,3-c]quinoline-8-carbohydrazide], in that order: 1 to 5 nM, 67 and below 100 nM.
For `CN(C(=O)[C@H]1CCO1)N(Cc1ccc(C(F)(F)F)cc1F)C(=O)c1ccc2nc(N)c3cnn(C)c3c2c1` [Example 197, 4-amino-N-[[2-fluoro-4-(trifluoromethyl)phenyl]methyl]-N′,1-dimethyl-N′-[(2R)-oxetane-2-carbonyl]pyrazolo[4,3-c]quinoline-8-carbohydrazide], the EC50 in assay [1] is below 1 nM. Besides, the “EC50 selectivity (SDMA assay)” value in assay [1] (setting [4]) is on record as 61. Also, the cytotoxic concentration (CC50) in assay [2] was below 100 nM.
For `CN(C(=O)C1CC1)N(Cc1ccc(C(F)(F)F)cc1)C(=O)c1ccc2nc(N)c3cnn(C)c3c2c1` [Example 343, 4-amino-N′-(cyclopropanecarbonyl)-N′,1-dimethyl-N-(4-(trifluoromethyl)benzyl)-1H-pyrazolo[4,3-c]quinoline-8-carbohydrazide], in that order: below 1 nM, 96 and below 100 nM.

Values taken from patent US20240254118A1, “PRMT5 INHIBITORS AND USES THEREOF” (Gilead Sciences, Inc., priority 2022, published 2024).
